Where two headings read alike, the source gives them in different places.
Experiments:
[1] = tested on: Acinetobacter baumannii NCTC 13301 producing Carbapenemase hydrolyzing OXA 23 enzyme; assay: Time kill study; format: cell-based; details: for Effect on bacterial count throughout the duration of the study (in words): cefepime, sulbactam, imipenem at 8 mcg/ml, compound of Formula (I) at 4 mcg/ml, alone or in combination
Procedure: (§1) The synergistic killing effect of the combinations according to invention was studied by performing typical time kill studies. Typically, freshly grown cultures were diluted to the required cell density (initial starting inoculum) in Cation adjusted Muller Hinton broth medium (BD, USA). The antibacterial agents at the required concentrations were added into the culture-containing medium either alone or in combination. The samples were incubated under shaking condition (120 rpm) at 37° C. Enumeration of viable bacterial count was undertaken, every 2 hour, by diluting in normal saline and plating on to the Tryptic Soya Agar plates (BD, USA). The plates were incubated for 24 hours to arrive at the viable bacterial count. […] The decrease of 1 Log CFU/ml, after administration of combination of present invention, in comparison to initial bacterial count corresponds to 90% killing of bacteria. Similarly, 2 Log CFU/ml reductions corresponds to 99% killing of bacteria and 3 Log CFU/ml reductions is equal to 99.9% killing of bacteria.
(§2) The assay without any antibacterial agent was taken as control.

[2] = tested on: Acinetobacter baumannii NCTC 13302 producing carbapenemase hydrolyzing OXA 25 enzyme; assay: Time kill study; format: cell-based; details: for Effect on bacterial count throughout the duration of the study (in words): cefepime, sulbactam, imipenem at 8 mcg/ml, compound of Formula (I) at 4 mcg/ml, alone or in combination
Procedure: as §1, §2

[3] = tested on: A. baumannii J 145 [OXA 51, OXA 24]; assay: MIC by agar dilution (Muller Hinton Agar, CLSI); format: cell-based; details: Acinetobacter baumannii
Procedure: (§3) The antibacterial activity of combinations according to the invention was investigated against various bacterial strains. In a typical study, minimum inhibitory concentrations (MIC) were determined using Muller Hinton Agar (MHA) (BD, USA) according to Clinical and Laboratory Standards Institute (CLSI) recommendations, (Clinical and Laboratory Standards Institute (CLSI), Performance Standards for Antimicrobial Susceptibility Testing, 20th Informational Supplement, M 100-S20, Volume 30, No. 1, 2010). In short, the inocula were adjusted to deliver about 10^4 colony forming units (CFU) per spot with a multipoint inoculator (Applied Quality Services, UK). The plates were pored with doubling concentration range of the test combinations according to invention containing MHA. The plates were inoculated and were incubated at 35° C. for 18 hours.

[4] = tested on: A. baumannii 1449880 [OXA 51, OXA 23]; assay: MIC by agar dilution (Muller Hinton Agar, CLSI); format: cell-based; details: Acinetobacter baumannii
Procedure: as §3

[5] = tested on: A. baumannii 1363934 [OXA 51, OXA 23]; assay: MIC by agar dilution (Muller Hinton Agar, CLSI); format: cell-based; details: Acinetobacter baumannii
Procedure: as §3

[6] = tested on: A. baumannii NCTC 13302 [OXA 51, OXA 25]; assay: MIC by agar dilution (Muller Hinton Agar, CLSI); format: cell-based; details: Acinetobacter baumannii
Procedure: as §3

[7] = tested on: A. baumannii NCTC 13304 [OXA 51, OXA 27]; assay: MIC by agar dilution (Muller Hinton Agar, CLSI); format: cell-based; details: Acinetobacter baumannii
Procedure: as §3

[8] = tested on: A. baumannii S 8 [OXA 51, OXA 23]; assay: MIC by agar dilution (Muller Hinton Agar, CLSI); format: cell-based; details: Acinetobacter baumannii
Procedure: as §3

[9] = tested on: carbapenam hydrolyzing (CHDL) and oxacillinases (OXA) producing Acinetobactor strains; assay: Antibacterial activity, summary statements over Tables 1-3; format: cell-based, Acinetobacter baumannii; details: for Change of MIC values in the presence of compound of Formula (I) (in words): Table 1 strains, compound of Formula (I) at 4 or 8 mcg/ml; for Antibacterial effect against highly resistant strains of A. baumannii (in words): summary of Tables 1-3
Procedure: as §3, §1

[10] = 0 hours, agent alone at 8 mcg/ml
[11] = 2 hours, agent alone at 8 mcg/ml
[12] = 4 hours, agent alone at 8 mcg/ml
[13] = 6 hours, agent alone at 8 mcg/ml
[14] = 8 hours, agent alone at 8 mcg/ml
[15] = agent alone, A. baumannii J 145, read-out: MIC
[16] = agent alone, A. baumannii 1449880, read-out: MIC
[17] = agent alone, A. baumannii 1363934, read-out: MIC
[18] = NCTC13302, agent alone, A. baumannii NCTC 13302, read-out: MIC
[19] = NCTC13304, agent alone, A. baumannii NCTC 13304, read-out: MIC
[20] = agent alone, A. baumannii S 8, read-out: MIC
[21] = 0 hours, agent alone at 4 mcg/ml
[22] = 2 hours, agent alone at 4 mcg/ml
[23] = 4 hours, agent alone at 4 mcg/ml
[24] = 6 hours, agent alone at 4 mcg/ml
[25] = 8 hours, agent alone at 4 mcg/ml
[26] = read-out: MIC (mcg/ml) in presence of Compound of Formula (I) at 4 mcg/ml
[27] = read-out: MIC (mcg/ml) in presence of Compound of Formula (I) at 8 mcg/ml

Compound | Bacterial count (Log10 CFU/ml) [1, 10] [Log10 CFU/ml] | Bacterial count (Log10 CFU/ml) [1, 11] [Log10 CFU/ml] | Bacterial count (Log10 CFU/ml) [1, 12] [Log10 CFU/ml] | Bacterial count (Log10 CFU/ml) [1, 13] [Log10 CFU/ml] | Bacterial count (Log10 CFU/ml) [1, 14] [Log10 CFU/ml] | Effect on bacterial count throughout the duration of the study (in words) ([1]; 8 hours) | Bacterial count (Log10 CFU/ml) [2, 10] [Log10 CFU/ml] | Bacterial count (Log10 CFU/ml) [2, 11] [Log10 CFU/ml] | Bacterial count (Log10 CFU/ml) [2, 12] [Log10 CFU/ml] | Bacterial count (Log10 CFU/ml) [2, 13] [Log10 CFU/ml] | Bacterial count (Log10 CFU/ml) [2, 14] [Log10 CFU/ml] | Effect on bacterial count throughout the duration of the study (in words) ([2]; 8 hours) | MIC [3, 15] [µg/mL] | MIC [4, 16] [µg/mL] | MIC [5, 17] [µg/mL] | MIC [6, 18] [µg/mL] | MIC [7, 19] [µg/mL] | MIC [8, 20] [µg/mL] | Change of MIC values in the presence of compound of Formula (I) (in words) [9] | Antibacterial effect against highly resistant strains of A. baumannii (in words) [9] | further results
CO/N=C(\C(=O)N[C@@H]1C(=O)N2C(C(=O)[O-])=C(C[N+]3(C)CCCC3)CS[C@H]12)c1csc(N)n1 [Cefepime] | 6.32 | 8.26 | 8.06 | 8.26 | 8.13 | not effective to decrease the bacterial count | 6.30 | 7.740 | 7.929 | 7.662 | 7.56 | not effective to decrease the bacterial count | 32 | > 32 | > 32 | 32 | 32 | > 32 | significantly decreased | ineffective | MIC ([3]; with Compound of Formula (I) at 4 mcg/ml, A. baumannii J 145, read-out: MIC (mcg/ml) in presence of Compound of Formula (I) at 4 mcg/ml): 16 µg/mL; MIC ([3]; with Compound of Formula (I) at 8 mcg/ml, A. baumannii J 145, read-out: MIC (mcg/ml) in presence of Compound of Formula (I) at 8 mcg/ml): 8 µg/mL; MIC ([4]; with Compound of Formula (I) at 4 mcg/ml, A. baumannii 1449880, read-out: MIC (mcg/ml) in presence of Compound of Formula (I) at 4 mcg/ml): 2 µg/mL; MIC ([4]; with Compound of Formula (I) at 8 mcg/ml, A. baumannii 1449880, read-out: MIC (mcg/ml) in presence of Compound of Formula (I) at 8 mcg/ml): 2 µg/mL; MIC ([5]; with Compound of Formula (I) at 4 mcg/ml, A. baumannii 1363934, read-out: MIC (mcg/ml) in presence of Compound of Formula (I) at 4 mcg/ml): 16 µg/mL; MIC ([5]; with Compound of Formula (I) at 8 mcg/ml, A. baumannii 1363934, read-out: MIC (mcg/ml) in presence of Compound of Formula (I) at 8 mcg/ml): 8 µg/mL; MIC ([6]; NCTC13302, with Compound of Formula (I) at 4 mcg/ml, A. baumannii NCTC 13302, read-out: MIC (mcg/ml) in presence of Compound of Formula (I) at 4 mcg/ml): 8 µg/mL; MIC ([6]; NCTC13302, with Compound of Formula (I) at 8 mcg/ml, A. baumannii NCTC 13302, read-out: MIC (mcg/ml) in presence of Compound of Formula (I) at 8 mcg/ml): 8 µg/mL; MIC ([7]; NCTC13304, with Compound of Formula (I) at 4 mcg/ml, A. baumannii NCTC 13304, read-out: MIC (mcg/ml) in presence of Compound of Formula (I) at 4 mcg/ml): 8 µg/mL; MIC ([7]; NCTC13304, with Compound of Formula (I) at 8 mcg/ml, A. baumannii NCTC 13304, read-out: MIC (mcg/ml) in presence of Compound of Formula (I) at 8 mcg/ml): 4 µg/mL; MIC ([8]; with Compound of Formula (I) at 4 mcg/ml, A. baumannii S 8, read-out: MIC (mcg/ml) in presence of Compound of Formula (I) at 4 mcg/ml): 8 µg/mL; MIC ([8]; with Compound of Formula (I) at 8 mcg/ml, A. baumannii S 8, read-out: MIC (mcg/ml) in presence of Compound of Formula (I) at 8 mcg/ml): 8 µg/mL
O=C(NNC(=O)[C@@H]1CC[C@@H]2CN1C(=O)N2OS(=O)(=O)O)[C@@H]1CCNC1 [Compound of Formula (I), trans-sulfuric acid mono-[2-(N′-[(R)-pyrrolidin-3-carbonyl]-hydrazinocarbonyl)-7-oxo-1,6-diaza-bicyclo[3.2.1]oct-6-yl] ester] | – | – | – | – | – | not effective to decrease the bacterial count | – | – | – | – | – | not effective to decrease the bacterial count | > 128 | > 128 | > 128 | > 128 | > 128 | > 128 | – | ineffective | Bacterial count (Log10 CFU/ml) [1, 21]: 6.32 Log10 CFU/ml; Bacterial count (Log10 CFU/ml) [1, 22]: 8.02 Log10 CFU/ml; Bacterial count (Log10 CFU/ml) [1, 23]: 8.36 Log10 CFU/ml; Bacterial count (Log10 CFU/ml) [1, 24]: 8.35 Log10 CFU/ml; Bacterial count (Log10 CFU/ml) [1, 25]: 8.39 Log10 CFU/ml; Bacterial count (Log10 CFU/ml) [2, 21]: 6.30 Log10 CFU/ml; Bacterial count (Log10 CFU/ml) [2, 22]: 7.903 Log10 CFU/ml; Bacterial count (Log10 CFU/ml) [2, 23]: 7.845 Log10 CFU/ml; Bacterial count (Log10 CFU/ml) [2, 24]: 7.875 Log10 CFU/ml; Bacterial count (Log10 CFU/ml) [2, 25]: 8.04 Log10 CFU/ml
C[C@@H](O)[C@H]1C(=O)N2C(C(=O)O)=C(SCCN=CN)C[C@H]12 [Imipenem] | 6.32 | 8.20 | 8.43 | 8.43 | 8.51 | – | 6.30 | 8.079 | 8.703 | 8.176 | 8.38 | – | > 32 | 8 | > 32 | > 32 | > 32 | 16 | – | – | –
CC1(C)[C@H](C(=O)O)N2C(=O)C[C@H]2S1(=O)=O [Sulbactam] | 6.32 | 7.27 | 7.65 | 7.74 | 7.81 | not effective to decrease the bacterial count | 6.30 | 7.39 | 7.69 | 7.34 | 7.34 | not effective to decrease the bacterial count | – | – | – | – | – | – | significantly decreased | ineffective | MIC ([3]; read-out: MIC (mcg/ml)): 16 µg/mL; MIC [3, 26]: 2 µg/mL; MIC [3, 27]: 2 µg/mL; MIC ([4]; read-out: MIC (mcg/ml)): 8 µg/mL; MIC [4, 26]: 0.5 µg/mL; MIC [4, 27]: 0.5 µg/mL; MIC ([5]; read-out: MIC (mcg/ml)): 16 µg/mL; MIC [5, 26]: 2 µg/mL; MIC [5, 27]: 2 µg/mL; MIC ([6]; NCTC13302, read-out: MIC (mcg/ml)): 16 µg/mL; MIC ([6]; NCTC13302, read-out: MIC (mcg/ml) in presence of Compound of Formula (I) at 4 mcg/ml): 2 µg/mL; MIC ([6]; NCTC13302, read-out: MIC (mcg/ml) in presence of Compound of Formula (I) at 8 mcg/ml): 1 µg/mL; MIC ([7]; NCTC13304, read-out: MIC (mcg/ml)): 16 µg/mL; MIC ([7]; NCTC13304, read-out: MIC (mcg/ml) in presence of Compound of Formula (I) at 4 mcg/ml): 2 µg/mL; MIC ([7]; NCTC13304, read-out: MIC (mcg/ml) in presence of Compound of Formula (I) at 8 mcg/ml): 2 µg/mL; MIC ([8]; read-out: MIC (mcg/ml)): 16 µg/mL; MIC [8, 26]: 8 µg/mL; MIC [8, 27]: 4 µg/mL
